Results on 19 compounds are retold here after patent US20180099931A1 (AbbVie S.à.r.l., priority 2016, published 2018).

Where two headings read alike, the source gives them in different places.

For this experiment, the target named is T1, F508delCFTR (Homo sapiens, UniProt P13569, DEL508-508).
T1 construct: expressed in transfected cells; host or cells: CFBE41o- human lung-derived epithelial cells (CFBE4lo-F508delCFTR-HRP), doxycycline-inducible
Briefly: Cell Surface Expression-Horse Radish Peroxidase (CSE-HRP) Assay.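 As to Maximum % activity (with co-corrector): co-corrector and positive control are both the same reference corrector at 2 µM.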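 As to Maximum % activity (without co-corrector): percent of the 2 µM on-plate positive control corrector response above DMSO.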 The settings on record: for Emax / Maximum % activity (with co-corrector): maximum at any tested concentration, normalized to on-plate positive control; for Emax: read-out: Maximum % activity (without co-corrector). In kind it is cell-based.

Setting [1] is: test compound without co-corrector.
[2] abbreviates: test compound without co-corrector, read-out: EC50 (without co-corrector).
[3] abbreviates: with co-corrector (2 μM of 3-[(2R,4R)-4-({[1-(2,2-difluoro-1,3-benzodioxol-5-yl)cyclopropyl]carbonyl}amino)-7-methoxy-3,4-dihydro-2H-chromen-2-yl]benzoic acid).
[4] abbreviates: with co-corrector (2 μM of 3-[(2R,4R)-4-({[1-(2,2-difluoro-1,3-benzodioxol-5-yl)cyclopropyl]carbonyl}amino)-7-methoxy-3,4-dihydro-2H-chromen-2-yl]benzoic acid), read-out: EC50 (with co-corrector).
Where [5] appears, read: CSE-HRP, test compound without co-corrector, read-out: EC50 (without co-corrector).
Where [6] appears, read: CSE-HRP, with co-corrector (2 μM of 3-[(2R,4R)-4-({[1-(2,2-difluoro-1,3-benzodioxol-5-yl)cyclopropyl]carbonyl}amino)-7-methoxy-3,4-dihydro-2H-chromen-2-yl]benzoic acid), read-out: EC50 (with co-corrector).
[7] abbreviates: CSE-HRP, with co-corrector (2 μM).

T1 sequence (P13569 with tags, fused parts or gaps DEL508-508): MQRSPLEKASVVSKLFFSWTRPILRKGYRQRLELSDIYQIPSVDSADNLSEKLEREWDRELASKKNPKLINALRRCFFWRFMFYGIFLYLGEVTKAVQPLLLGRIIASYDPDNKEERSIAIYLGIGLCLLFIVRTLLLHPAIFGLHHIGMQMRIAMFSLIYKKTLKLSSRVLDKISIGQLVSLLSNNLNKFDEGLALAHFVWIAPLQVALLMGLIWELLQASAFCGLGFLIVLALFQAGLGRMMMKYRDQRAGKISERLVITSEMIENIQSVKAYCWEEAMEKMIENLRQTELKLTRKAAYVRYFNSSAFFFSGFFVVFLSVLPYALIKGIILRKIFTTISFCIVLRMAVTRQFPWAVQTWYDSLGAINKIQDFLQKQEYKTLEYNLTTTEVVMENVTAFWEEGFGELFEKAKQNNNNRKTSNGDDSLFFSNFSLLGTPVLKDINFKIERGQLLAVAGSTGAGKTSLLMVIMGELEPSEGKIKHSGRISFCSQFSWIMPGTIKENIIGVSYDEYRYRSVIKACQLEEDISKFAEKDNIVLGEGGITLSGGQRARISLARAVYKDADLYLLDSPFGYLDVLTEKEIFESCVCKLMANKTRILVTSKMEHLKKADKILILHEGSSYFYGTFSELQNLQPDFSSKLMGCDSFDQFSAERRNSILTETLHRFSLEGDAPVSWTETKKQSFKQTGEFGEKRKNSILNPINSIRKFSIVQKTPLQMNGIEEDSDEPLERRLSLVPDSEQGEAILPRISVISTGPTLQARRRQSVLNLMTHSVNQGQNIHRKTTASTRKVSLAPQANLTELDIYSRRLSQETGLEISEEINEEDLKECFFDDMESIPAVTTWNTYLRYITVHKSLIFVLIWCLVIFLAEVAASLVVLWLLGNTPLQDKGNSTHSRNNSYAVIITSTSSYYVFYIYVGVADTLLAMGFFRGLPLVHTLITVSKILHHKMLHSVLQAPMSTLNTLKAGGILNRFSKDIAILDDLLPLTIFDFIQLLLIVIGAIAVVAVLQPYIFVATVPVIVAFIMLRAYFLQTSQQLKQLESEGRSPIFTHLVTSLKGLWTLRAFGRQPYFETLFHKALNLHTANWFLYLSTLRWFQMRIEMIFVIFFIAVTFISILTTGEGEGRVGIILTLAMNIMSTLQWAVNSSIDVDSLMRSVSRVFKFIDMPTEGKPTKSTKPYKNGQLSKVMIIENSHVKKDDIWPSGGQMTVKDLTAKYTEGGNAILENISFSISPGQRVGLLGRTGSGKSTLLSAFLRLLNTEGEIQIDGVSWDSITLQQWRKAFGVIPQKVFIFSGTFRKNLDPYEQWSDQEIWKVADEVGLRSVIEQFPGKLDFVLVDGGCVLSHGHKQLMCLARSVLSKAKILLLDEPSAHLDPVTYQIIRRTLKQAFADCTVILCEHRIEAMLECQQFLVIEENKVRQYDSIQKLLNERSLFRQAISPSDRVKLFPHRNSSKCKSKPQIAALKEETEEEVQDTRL

Broadly, the EC50 is the concentration that produces a half-maximal response. Regarding `COc1ccc(C(C)(C)C)cc1CN[C@H]1[C@H](C(C)(C)C)[C@@H](C(=O)O)N(C(=O)[C@@H]2C[C@H]2c2ccccc2)[C@H]1c1ccccc1` (relative stereo) [II-339], under setting [1], the Emax was over 200%. Moreover, the EC50 runs as follows: under setting [2], 1 to 10 µM; under setting [4], under 1 µM. Further, under setting [3], the “Maximum % activity (with co-corrector)” value is “+++ (≥350)”.

On to `CC(C)(C)NC(=O)c1cncc(N[C@H]2[C@H](C(C)(C)C)[C@@H](C(=O)O)N(C(=O)C3CCCCC3)[C@H]2c2ccccc2)c1` [III-161], for which, under setting [1], the Emax was under 100%. Besides, the EC50 is, setting by setting: under setting [2], over 10 µM; under setting [4], over 10 µM. Moreover, the “Maximum % activity (with co-corrector)” value (with co-corrector (2 μM)) is on record as “+ (<150)”.

In the case of `COc1ccc(C(C)(C)C)cc1CN[C@H]1[C@H](C(C)(C)C)[C@@H](C(=O)O)N(C(=O)C2CCCS(=O)(=O)C2)[C@H]1c1ccccc1` (stereo partly shown) [Example I-66], the concentration for a half-maximal effect (EC50) lay in the range of 1 to 10 µM under setting [2] and 1 to 10 µM under setting [4]. For the same compound, the “Maximum % activity (with co-corrector)” value (with co-corrector (2 μM)) is “+++ (≥350)”. In addition, the Emax (without co-corrector) was over 200%.

Take `COc1nc(C(C)(C)C)ccc1CN[C@H]1[C@H](C(C)(C)C)[C@@H](C(=O)O)N(C(=O)Cc2ccccc2C)[C@H]1c1ccccc1` [II-429]: the Emax under setting [1] lay within 100 to 200%. Besides, the 50% effective concentration (EC50) is, setting by setting: under setting [2], under 1 µM; under setting [4], under 1 µM. In addition, the “Maximum % activity (with co-corrector)” value under setting [3] was “+++ (≥350)”.

With `COc1cc(C(F)(F)F)ccc1CN[C@H]1[C@H](C(C)(C)C)[C@@H](C(=O)O)N(C(=O)[C@@H]2CCCCO2)[C@H]1c1cccnc1N(C)C` [II-495], under setting [1], the Emax is over 200%. Also, the half-maximal effective concentration (EC50) by setting is: under setting [2], 1 to 10 µM; under setting [4], 1 to 10 µM. Further, under setting [3], the “Maximum % activity (with co-corrector)” value is given as “+++ (≥350)”.

For `CC(C)Oc1ccccc1CN[C@@H]1[C@@H](C(C)(C)C)[C@H](C(=O)O)N(C(=O)C2CCCCC2)[C@@H]1c1ccccc1` (racemic) [II-4], the half-maximal effective concentration (EC50) runs as follows: under setting [5], 1 to 10 µM; under setting [6], 1 to 10 µM. The “Maximum % activity (with co-corrector)” value under setting [7] is “+++ (≥350)”. Also, under “CSE-HRP, without co-corrector”, the Emax was in the range of 100 to 200%.

In the case of `COc1ncc(C2CCC2)cc1CN[C@H]1[C@H](C(C)(C)C)[C@@H](C(=O)O)N(C(=O)OC(C)C)[C@H]1c1ccccc1C` [Example 94, (2S,3S,4S,5S)-3-tert-butyl-4-{[(5-cyclobutyl-2-methoxypyridin-3-yl)methyl]amino}-5-(2-methylphenyl)-1-{[(propan-2-yl)oxy]carbonyl}pyrrolidine-2-carboxylic acid], the EC50 is, setting by setting: under setting [2], 1 to 10 µM; under setting [4], under 1 µM. Besides, for the setting “with co-corrector (2 μM)”, the “Maximum % activity (with co-corrector)” value is given as “+++ (≥350)”. The Emax (without co-corrector) was over 200%.

In the case of `COc1ccc(C(C)C)cc1CN[C@@H]1[C@@H](C(C)(C)C)[C@H](C(=O)O)N(C(=O)OC(C)C)[C@@H]1c1ccccc1` (racemic) [II-44], the concentration for a half-maximal effect (EC50) runs as follows: under setting [5], 1 to 10 µM; under setting [6], 1 to 10 µM. Under setting [7], the “Maximum % activity (with co-corrector)” value is given as “+++ (≥350)”. The Emax (CSE-HRP, without co-corrector) is over 200%.

Regarding `CCCC1(O)CCC(C(=O)N2C(C(=O)O)C(C(C)(C)C)C(NCc3cc(C(C)(C)C)ccc3OC)C2c2ccccc2)CC1` [Example 35, (2S,3S,4S,5S)-3-tert-butyl-4-{[(5-tert-butyl-2-methoxyphenyl)methyl]amino}-1-(cis-4-hydroxy-4-propylcyclohexane-1-carbonyl)-5-phenylpyrrolidine-2-carboxylic acid], the EC50 under setting [2] was in the range of 1 to 10 µM and the EC50 under setting [4] was under 1 µM. Further, the “Maximum % activity (with co-corrector)” value (with co-corrector (2 μM)) is given as “+++ (≥350)”. The Emax (without co-corrector) is over 200%.

On to `O=C(O)[C@H]1[C@H](C2CC2)[C@@H](Nc2cc(C(F)(F)F)ccn2)[C@@H](c2ccccc2)N1C(=O)C1CCCCC1` (racemic) [III-33], for which the Emax under setting [1] is under 100%. Moreover, the EC50 is 1 to 10 µM under setting [2] and 1 to 10 µM under setting [4]. Besides, under setting [3], the “Maximum % activity (with co-corrector)” value was “++ (≥150 and <350)”.

In the case of `COc1ccc(C(C)(C)C)cc1CN[C@H]1[C@H](C(C)(C)C)[C@@H](C(=O)O)N(C(=O)c2cc(-c3ccccc3)n(C)n2)[C@H]1c1ccccc1` [II-227], the EC50 reads like this: under setting [5], 1 to 10 µM; under setting [6], under 1 µM. The “Maximum % activity (with co-corrector)” value under setting [7] was “+++ (≥350)”. Besides, the Emax (CSE-HRP, without co-corrector) was over 200%.

Take `COc1ccc(C(F)(F)F)cc1CN[C@H]1[C@H](C(C)(C)C)[C@@H](C(=O)O)N(C(=O)[C@@H]2OCC[C@@H]2C(C)C)[C@H]1c1ccccc1` (relative stereo) [Example I-105]: the EC50 reads like this: under setting [2], 1 to 10 µM; under setting [4], 1 to 10 µM. Besides, the “Maximum % activity (with co-corrector)” value (with co-corrector (2 μM)) is listed as “+++ (≥350)”. The Emax (without co-corrector) was under 100%.

For `COc1ccc(C2(C(F)(F)F)CC2)cc1CN[C@H]1[C@H](C(C)(C)C)[C@@H](C(=O)O)N(C(=O)OC(C)C)[C@H]1c1ccccc1` [Example I-141], the EC50 runs as follows: under setting [2], 1 to 10 µM; under setting [4], under 1 µM. For the same compound, where the note is “with co-corrector (2 μM)”, the “Maximum % activity (with co-corrector)” value was “+++ (≥350)”. The Emax (without co-corrector) was over 200%.

With `COc1ccc(C(C)(C)C)cc1CN[C@H]1[C@H](C(C)(C)C)[C@@H](C(=O)O)N(C(=O)[C@H]2[C@H](C(F)(F)F)[C@H]3CC[C@@H]2O3)[C@H]1c1ccccc1` (relative stereo) [II-506], the Emax under setting [1] was over 200%. The EC50 is, setting by setting: under setting [2], 1 to 10 µM; under setting [4], under 1 µM. Further, the “Maximum % activity (with co-corrector)” value under setting [3] is reported as “+++ (≥350)”.

Regarding `CC(C)(C)[C@H]1[C@H](NCc2ccc3c(c2)OCCCO3)[C@H](c2ccccc2)N(C(=O)C2CCCCC2)[C@@H]1C(=O)O` [III-129], the Emax under setting [1] was under 100%. The EC50 is, setting by setting: under setting [2], over 10 µM; under setting [4], 1 to 10 µM. The “Maximum % activity (with co-corrector)” value (with co-corrector (2 μM)) was “++ (≥150 and <350)”.

In the case of `COc1ccc(C(C)(C)C)cc1CN[C@H]1[C@H](C(C)(C)C)[C@@H](C(=O)O)N(C(=O)C2CCCCC2)[C@H]1c1ccccc1F` [Example 24, (2S,3S,4S,5S)-3-tert-butyl-4-{[(5-tert-butyl-2-methoxyphenyl)methyl]amino}-1-(cyclohexanecarbonyl)-5-(2-fluorophenyl)pyrrolidine-2-carboxylic acid], the EC50 reads like this: under setting [2], under 1 µM; under setting [4], under 1 µM. Also, for the setting “with co-corrector (2 μM)”, the “Maximum % activity (with co-corrector)” value is on record as “+++ (≥350)”. Further, the Emax (without co-corrector) was over 200%.

As to `COc1ccc(C(C)(C)C)cc1CN[C@H]1[C@H](C(C)(C)C)[C@@H](C(=O)O)N(C(=O)[C@@H]2CCC[C@H](O)C2)[C@H]1c1ccccc1` [II-515], the Emax under setting [1] was in the range of 100 to 200%. Also, the EC50 was in the range of 1 to 10 µM under setting [2] and 1 to 10 µM under setting [4]. Also, the “Maximum % activity (with co-corrector)” value under setting [3] is recorded as “+++ (≥350)”.

As to `COc1ccc(CN(C)C)cc1CN[C@H]1[C@H](C(C)(C)C)[C@@H](C(=O)O)N(C(=O)C2CCCCC2)[C@H]1c1ccccc1` [Example I-85], the EC50 under setting [2] is over 10 µM and the 50% effective concentration (EC50) under setting [4] was over 10 µM. The “Maximum % activity (with co-corrector)” value (with co-corrector (2 μM)) is listed as “+ (<150)”. Moreover, for the setting “without co-corrector”, the Emax was under 100%.

Turning to `COc1ncc(C(F)(F)F)cc1CN[C@H]1[C@H](C(C)(C)C)[C@@H](C(=O)O)N(C(=O)[C@H]2CCCCO2)[C@H]1c1ccccc1C(C)C` [Example 85, (2S,3S,4S,5S)-3-tert-butyl-4-({[2-methoxy-5-(trifluoromethyl)pyridin-3-yl]methyl}amino)-1-[(2R)-oxane-2-carbonyl]-5-[2-(propan-2-yl)phenyl]pyrrolidine-2-carboxylic acid], the EC50 was 1 to 10 µM under setting [2] and under 1 µM under setting [4]. Moreover, where the note is “with co-corrector (2 μM)”, the “Maximum % activity (with co-corrector)” value is reported as “+++ (≥350)”. The Emax (without co-corrector) was over 200%.
